Key:
Beta-secretase 1 = Beta-secretase 1 (Homo sapiens, UniProt P56817); assay: Inhibition of recombinant human BACE1 in FRET assay
[1] = Inhibition of Abeta peptide production in HEK293 cells overexpressing APP751swe; assay type: functional, cell-based; conditions: Homo sapiens

Sequence of Beta-secretase 1 (P56817 whole entry): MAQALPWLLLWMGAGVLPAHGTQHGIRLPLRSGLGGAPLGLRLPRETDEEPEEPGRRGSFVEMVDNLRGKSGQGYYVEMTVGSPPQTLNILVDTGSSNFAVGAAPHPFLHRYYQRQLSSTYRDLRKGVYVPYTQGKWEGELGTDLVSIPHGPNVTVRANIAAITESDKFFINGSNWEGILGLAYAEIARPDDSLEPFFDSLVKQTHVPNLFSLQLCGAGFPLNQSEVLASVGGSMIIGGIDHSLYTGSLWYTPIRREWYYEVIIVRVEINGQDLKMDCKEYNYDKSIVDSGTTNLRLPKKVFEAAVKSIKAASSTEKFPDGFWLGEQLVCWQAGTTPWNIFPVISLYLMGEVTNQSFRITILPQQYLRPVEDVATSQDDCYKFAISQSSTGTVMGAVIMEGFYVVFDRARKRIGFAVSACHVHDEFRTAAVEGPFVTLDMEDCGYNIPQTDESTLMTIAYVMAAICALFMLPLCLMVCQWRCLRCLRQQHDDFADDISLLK

IC50 (Beta-secretase 1) [µM] | IC50 [1] [µM] | SMILES
9.7 | > 100 | CC(C)[C@H](NC(=O)CC[C@H](O)[C@@H]1CCCCCC[C@H](NC(=O)OC(C)(C)C)C(=O)N[C@@H](C)C(=O)N1)C(=O)NCc1ccccc1
 | 2.83 | CC(C)[C@H](NC(=O)OC(C)(C)C)C(=O)N[C@@H](C)C(=O)N[C@@H](Cc1ccccc1)[C@@H](O)C[C@@H](C)C(=O)N[C@H](C(=O)NCc1ccncc1)C(C)C

Source: ChEMBL document CHEMBL1148555, “Macrocyclic peptidomimetic inhibitors of beta-secretase (BACE): first X-ray structure of a macrocyclic peptidomimetic-BACE complex” (Bioorg Med Chem Lett, 2006)
